# Data taken from publication PMC11484510, “Antibacterial activity of structurally diverse natural prenylated isobavachalcone derivatives” (RSC Advances, 2024).
# “Also recorded” adds a separate entry of the source. Like-named read-outs stand apart in the source and are kept apart here.
# Experiments:
# P. aeruginosa ATCC 27853 [1] = assay: MIC, broth microdilution (CLSI), Alamar blue; format: cell-based; settings: P. aeruginosa ATCC 27853, 24 hours at 37 °C, read-out: Minimum inhibitory concentration (MIC) P. aeruginosa
# Description: (§1) The bacterial strains S. aureus ATCC 29213, MRSA ATCC 15187, E. coli ATCC 25922, and P. aeruginosa ATCC 27853 were obtained from ATCC (American Type Culture Collection). Cation-adjusted Mueller–Hinton broth (MHB; Becton–Dickinson, Cockeysville, MD) was used to determine the minimum inhibitory concentration (MIC). Mueller–Hinton agar (MHA; Becton–Dickinson) was used for minimum bactericidal concentration (MBC) studies. Alamar blue (Himedia) was used to detect the MIC value.
# (§2) The antibacterial activity of the compounds against S. aureus ATCC 29213, MRSA ATCC 15187, E. coli ATCC 25922, and P. aeruginosa ATCC 27853 was determined through a broth microdilution method according to the guidelines of the Clinical and Laboratory Standards Institute (CLSI).[50] […] Growth control and media control were employed along with 2% DMSO as vehicle control.
# (§3) In a 96-well flat bottom plate, the test compounds were two-fold serially diluted in Mueller Hinton Broth (MHB). The final concentrations of the compounds ranged from 100 to 0.08 μM. 100 μL of standardized bacterial inoculum with turbidity equivalent to 0.5 McFarland standard (1.5 × 10^8 CFU mL^−1) was diluted 1 : 100 (1.5 × 10^6 CFU mL^−1) in Mueller Hinton Broth and inoculated in the plates.[51] The plates were incubated for 24 hours at 37 °C. After incubation, 10 μL of freshly prepared Alamar blue (Himedia) was added to each well of the plate, and plates were further incubated at 37 °C for 30 minutes. After incubation, the fluorescence was measured at excitation/emission of 540–570/580–610 nm. The percentage inhibition and viability were calculated for the controls, and the Gompertz curve was utilized to estimate the minimum inhibitory concentration.
# E. coli ATCC 25922 = assay: MIC, broth microdilution (CLSI), Alamar blue; format: cell-based; settings: E. coli ATCC 25922, 24 hours at 37 °C, read-out: Minimum inhibitory concentration (MIC) E. coli
# Description: as §1, §2, §3
# S. aureus ATCC 29213 [2] = assay: MIC, broth microdilution (CLSI), Alamar blue; format: cell-based; settings: S. aureus ATCC 29213, 24 hours at 37 °C, read-out: Minimum inhibitory concentration (MIC) S. aureus
# Description: as §1, §2, §3
# [3] = test system: RAW 264.7 macrophage cell line; assay: Cell viability assay (MTT); format: cell-based, murine; settings: CC50 (RAW 264.7)/MIC with respect to S. aureus
# Experimental: (§4) RAW 264.7 cells were acquired from the American type culture collection (ATCC, Manassas, VA) and cultured in Dulbecco's modified eagle's medium (DMEM, Gibco, Life Technologies, NY) supplemented with 10% fetal bovine serum (FBS) at 37 °C and 5% CO2. MTT dye (Himedia) was used to detect CC50 values. The antibiotics ciprofloxacin hydrochloride monohydrate (Himedia), kanamycin sulfate (Himedia), and vancomycin (Himedia) were used for reference in microbiological assays.
# (§5) The effect of compounds (IBC, IBC-2, and IBC-3) on the viability of cells was evaluated at different concentrations against macrophage cell lines through the 3-(4,5-dimethylthiazol2-yl)-2, 5-diphenyltetrazolium bromide (MTT) assay. The RAW 264.7 cells are monocyte/macrophage-like cells originating from an Abelson leukemia virus-transformed cell line derived from BALB/c mice. Due to their reliability and consistency, these cell lines are widely utilized for both in vitro and in vivo analyses.[52] The MTT assay is a colorimetric assay used to measure the viability and cytotoxicity of cells. The cells (2 × 10^4 cells per well) were grown at 37 °C with 5% CO2 for 48 hours, then exposed to compounds with different concentrations. […] After 20–21 hours, 20 μL of MTT dye at 2.5 mg mL^−1 concentration was added to each well and incubated for 4 hours. 100 μL DMSO solubilized the water-insoluble purple and white formazan produced.[53] The formation of the formazan salt by mitochondrial dehydrogenases was measured at 570.0 nm after incubating for 20 min. The percentage cytotoxicity was calculated with respect to the untreated cells, and the CC50 value was calculated. CC50 was defined as the concentration of an inhibitor that reduces cellular activities by 50% compared to untreated control cultures. The CC50 values were calculated as the concentration where the absorbance was reduced by 50% using GraphPad Prism software.[54] The selectivity index (SI) determines the safety profile of the compound. It is calculated as the ratio of compound concentration at which 50% of cell growth is inhibited compared to untreated cells (CC50) to the effective inhibiting concentration against bacterial strain (MIC). The high SI (>10 fold of MIC) of a drug is proven to have a favorable safety profile.[28] Selectivity index (SI) = CC50 of the compound (μM)/MIC of the compound (μM).
# [4] = Cell viability assay (MTT); format: cell-based, murine; settings: mouse, RAW 264.7 macrophage cells; RAW 264.7 macrophage cell line, MTT assay
# Experimental: as §4, §5
# S. aureus ATCC 29213 [5] = assay: Time-kill assay; format: cell-based; settings: for Time-kill profile: MIC, 2× MIC, 4× MIC, 1 h to 24 h, 37 °C
# P. aeruginosa ATCC 27853 [6] = assay: MBC, plating on MHA; format: cell-based; settings: Pseudomonas aeruginosa, ATCC27853; more than 99.9% of the cells killed; read-out: Minimum bactericidal concentration (MBC) P. aeruginosa
# Description: as §1
# (§6) MBC is defined as the lowest concentration of the compound at which more than 99.9% of the cells were killed compared with the growth control. The minimum compound concentration at which no visible bacterial growth was observed was taken as the Minimum Bactericidal Concentration (MBC).[50]
# S. aureus ATCC 29213 [7] = assay: MBC, plating on MHA; format: cell-based; settings: Staphylococcus aureus, ATCC29213; more than 99.9% of the cells killed; read-out: Minimum bactericidal concentration (MBC) S. aureus
# Description: as §1, §6
# MRSA ATCC 15187 = assay: MIC, broth microdilution (CLSI), Alamar blue; format: cell-based, Methicillin-resistant S. aureus; settings: read-out: Minimum inhibitory concentration (MIC) MRSA
# Description: as §1, §2, §3
# S. aureus [8] = assay: Combinational study (checkerboard microdilution) with standard drugs; format: cell-based; settings: for MIC: Staphylococcus aureus, read-out: MIC alone
# Experimental: The Fractional Inhibitory Concentration Index (FICI) was calculated for each test compound and reference drug to find the combinational effect.
# In a 96-well flat bottom plate, the reference drug with 4× MIC was serially diluted horizontally. The test compounds with 4× MIC were serially diluted two-fold outside the plate in 1.5 mL Eppendorf's using Mueller Hinton Broth (MHB). These two serially diluted compounds were combined to create drug-compound combinations in the plate. The reference drug (horizontally) and tested compounds (vertically) alone were serially diluted for MIC determination. 100 μL of the standardized bacterial inoculum with a turbidity equivalent to a 0.5 McFarland standard were diluted 1 : 100 in Mueller Hinton Broth and inoculated in the plates. The plates were incubated for 24 hours at 37 °C. After incubation, 10 μL of freshly prepared Alamar blue (Himedia) was added to each well of the plate, and the plates were further incubated at 37 °C for 30 minutes. After incubation, the plates were visually observed. […] The FICI was calculated using the formula FICI = FIC of compound + FIC of drug. The calculation followed is FICI (CA/(MICA)) + (CB/(MICB)), where CA is the MIC of the compound in combination, CB is the MIC of the drug in combination, and MICA and MICB are the MIC values of individual compounds and drugs, respectively. The range selection followed the interpretation criteria. The FICI range of 0.5 to 4 indicates indifference, ≤ or =0.5 indicates synergy and >4 indicates antagonism.[57]
# S. aureus [9] = assay: Cell integrity analysis by PI staining; format: cell-based; settings: drug control at 1× MIC, 30 minutes
# Experimental: Propidium iodide (PI) indicates cell integrity, emitting a red fluorescence signal. PI's polar and hydrophilic nature impedes its entrance within active bacterial cells, but within perforated dead cells, it can easily bind to nucleic acid (DNA/RNA).[32,60]S. aureus bacterial cells were incubated overnight at 37 °C and diluted further 1 : 100 in Mueller Hinton Broth (MHB). The diluted culture was grown until its OD600 reached 0.5. […] Vancomycin was used as a drug control at 1× MIC, while untreated bacterial cells were used as growth control. The samples were centrifuged at 5000 rpm speed at 4 °C temperature for 10 minutes, and the pellet was washed two times using phosphate-buffered saline pH-7.4 (PBS). To stain the sample (dead cells), 3 μL PI of 20.0 mM concentration was added to the 1 mL solution (pellet resuspended in PBS) and incubated for 15 minutes. To remove the dye, the samples were centrifuged again and washed with PBS once. The final pellet was resuspended in 1 mL of PBS, and 30 μL of each undiluted sample was used to obtain fluorescence imaging. The cells were observed under fluorescence microscopy.[61]
# [10] = Pseudomonas aeruginosa, ATCC27853, 24 h
# [11] = Staphylococcus aureus, ATCC29213
# [12] = MRSA ATCC 15187, 24 hours at 37 °C
# [13] = Staphylococcus aureus, MRSA ATCC 15187, 24 hours at 37 °C
# [14] = MIC of the compound in combination with ciprofloxacin, S. aureus
# [15] = MIC of the compound in combination with vancomycin, S. aureus
# [16] = checkerboard, S. aureus, substance alone
# [17] = compound with ciprofloxacin, S. aureus
# [18] = compound with vancomycin, S. aureus
SMILES,MIC (P. aeruginosa ATCC 27853 [1]; [10]) [µM],MIC (E. coli ATCC 25922) [µM],"MIC (E. coli ATCC 25922; Escherichia coli, ATCC25922) [µM]",MIC (S. aureus ATCC 29213 [2]) [µM],MIC (S. aureus ATCC 29213 [2]; [11]) [µM],CC50 [4] [µM],Time-kill profile (S. aureus ATCC 29213 [5]),MBC (P. aeruginosa ATCC 27853 [6]) [µM],MBC (S. aureus ATCC 29213 [7]) [µM],MIC (MRSA ATCC 15187; [12]) [µM],MIC (MRSA ATCC 15187; [13]) [µM],MIC combination (compound) (S. aureus [8]; [14]) [µM],MIC combination (compound) (S. aureus [8]; [15]) [µM],MIC (S. aureus [8]; [16]) [µM],Outcome of combination (S. aureus [8]; [17]),∑ FICI (S. aureus [8]; [17]),Outcome of combination (S. aureus [8]; [18]),∑ FICI (S. aureus [8]; [18]),also measured
"CC(C)=CCc1c(O)ccc(C(=O)/C=C/c2ccc(O)cc2)c1O [IBC, (E)-1-(2,4-dihydroxy-3-(3-methylbut-2-en-1-yl)phenyl)-3-(4-hydroxyphenyl) prop-2-en-1-one]",24,>100,> 100,5,5,94,"after 24 hours, an increase in CFU was observed; also recorded: concentration-dependent killing till 9 h",25,6.25,>100,> 100,5,2.5,5,Indifference (The FICI range of 0.5 to 4 indicates indifference),1.25,Indifference (The FICI range of 0.5 to 4 indicates indifference),0.99,Selectivity index (SI) [3]: 19
"CC1(C)CCc2c(ccc3c2OC(c2ccc(O)cc2)CC3=O)O1 (stereo not drawn) [IBC-2, 2-(4-hydroxyphenyl)-8,8-dimethyl-2,3,9,10-tetrahydro-4H,8H-pyrano[2,3-f]chromen-4-one]",24,>100,> 100,5,5,115,concentration-dependent killing effect; also recorded: concentration and time-dependent killing effects,50,12.5,>100,> 100,0.625,5,5,Indifference (The FICI range of 0.5 to 4 indicates indifference),0.625,Indifference (The FICI range of 0.5 to 4 indicates indifference),2,"MIC (P. aeruginosa ATCC 27853 [1]): 22 µM; CFU count of S. aureus ATCC 29213 in time-kill study (S. aureus ATCC 29213 [5]; 2× MIC and 4× MIC, with increasing time (up to 24 h)): below the detection limit"
"CN[C@H](CC(C)C)C(=O)N[C@H]1C(=O)N[C@@H](CC(N)=O)C(=O)N[C@H]2C(=O)N[C@H]3C(=O)N[C@H](C(=O)N[C@H](C(=O)O)c4cc(O)cc(O)c4-c4cc3ccc4O)[C@H](O)c3ccc(c(Cl)c3)Oc3cc2cc(c3O[C@@H]2O[C@H](CO)[C@@H](O)[C@H](O)[C@H]2O[C@H]2C[C@](C)(N)[C@H](O)[C@H](C)O2)Oc2ccc(cc2Cl)[C@H]1O [Vancomycin, vancomycin, reference compound]",–,–,–,–,–,–,–,–,–,–,–,–,–,–,–,–,–,–,"PI red fluorescence (cell integrity) (S. aureus [9]): higher number of dead cells emitting red fluorescence; MIC (MRSA ATCC 15187; Staphylococcus aureus, 24 h): 0.7 µM; MIC combination (drug) (S. aureus [8]; MIC of vancomycin in combination with IBC, S. aureus): 0.39 µM; MIC combination (drug) (S. aureus [8]; MIC of vancomycin in combination with IBC-2, S. aureus): 0.78 µM; MIC combination (drug) (S. aureus [8]; MIC of vancomycin in combination with IBC-3, S. aureus): 0.02 µM; MIC (S. aureus [8]): 0.78 µM"
